From US6420401B1, “1,2,5, thiadiazolidin-3-one 1,1-dioxide derivatives” (Wichita State University, priority 1997, dated 2002) come the findings set out here.

SMILES strings stand for the structures.

One may read the kinact/KI as the maximal inactivation rate divided by the concentration that gives half of it.

Assay type in all cases: biochemical
In assay [1] the target is T1, human leukocyte elastase (HLE) (Homo sapiens, UniProt P08246).
T1 sequence (P08246 30-267): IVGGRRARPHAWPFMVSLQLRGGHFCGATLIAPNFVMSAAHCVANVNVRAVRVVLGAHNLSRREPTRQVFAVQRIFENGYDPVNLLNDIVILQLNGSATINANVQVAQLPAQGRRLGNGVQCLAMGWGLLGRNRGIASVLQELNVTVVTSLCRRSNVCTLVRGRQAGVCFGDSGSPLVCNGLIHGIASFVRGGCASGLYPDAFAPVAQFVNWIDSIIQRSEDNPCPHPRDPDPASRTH
Briefly: Inactivation of human leukocyte elastase, progress curve method. As to the method: Absorbance was recorded at 410 nm for reaction solutions containing 20.0 nM HLE, 1.00 mM MeOSuc-Ala-Ala-Pro-Val p-nitroanilide, and the indicated concentrations of inhibitor in 0.1 M HEPES buffer, pH 7.25, and 3.6% dimethyl sulfoxide. The temperature was maintained at 25° C., and the reactions were initiated by the addition of enzyme.
(Table 4). Absorbance was monitored at 410 nm for reaction solutions containing 20.0 nM HLE, 1.00 mM MeOSuc-Ala-Ala-Pro-Val p-nitroanilide, and the indicated concentrations of inhibitor in 0.1 M HEPES buffer, pH 7.25, and 3.6% dimethyl sulfoxide. The temperature was maintained at 25° C., and the reactions were initiated by the addition of enzyme.
(§1) An in vitro assay was used to screen compounds of the invention for the ability to reduce or inhibit serine protease activity. The human leukocyte elastase (HLE), cathepsin G (Cat G) and proteinase 3 (PR 3) assays have each been described in detail, Groutas et al. (1997) Biochemistry 36, 4739-4750. Chymase was assayed using N-succinyl Ala-Ala-Pro-Phe p-nitroanilide and 0.45 M Tris buffer/1.8 M NaCl, pH 8.03, Schechter, N. M. et al. (1993) J. Biol. Chem. 268, 23626-23633.
(§2) The rates of inactivation of HLE, Cat G or PR3 by each compound (or library of compounds) were determined by the progress curve method [Morrison, J. F. & Walsh, C. T. (1988) Adv. Enzymol. 61, 201-301]. Typical progress curves using a representative sulfonamide or heterocyclic sulfide inhibitor are illustrated in FIGS. 1 and 2, respectively. The apparent second-order rate constants kinact/kI M^−1 s^−1, the magnitude of which serves as an index of inhibitory potency, were determined by the progress curve method and are listed in Table 5 (sulfonamides), Table 6 (heterocyclic sulfides), Table 3 (oxa acids) , Tables 7 & 8 (libraries 1-30), and Table 9 (reversible inhibitors).

Assay [2] concerns the target T2, human leukocyte cathepsin G (Cat G) (Homo sapiens, UniProt P08311).
T2 sequence (P08311 21-244): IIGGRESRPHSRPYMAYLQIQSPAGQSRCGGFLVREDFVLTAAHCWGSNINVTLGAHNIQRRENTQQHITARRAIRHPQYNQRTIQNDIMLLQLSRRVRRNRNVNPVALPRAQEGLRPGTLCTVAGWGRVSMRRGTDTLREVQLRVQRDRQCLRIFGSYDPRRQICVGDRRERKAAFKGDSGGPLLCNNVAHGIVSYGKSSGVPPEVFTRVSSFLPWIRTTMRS
Briefly: Inactivation of cathepsin G, progress curve method. The procedure: as §1, §2
A solution of (L)-4,5-dibenzyl-1,2,5-thiadiazolidin-3-one 1,1 dioxide (0.5 g; 1.58 mmol) and ethyl α-bromofluoroacetate (0.44 g; 2.37 mmol) in dry dimethyl formamide (3 mL) was treated with 60% sodium hydride ([…]; 1.58 mmol). The reaction mixture was kept at 55° C. for 1 h using a water bath. The solvent was removed in vacuo and the product was dissolved in ethyl acetate (35 mL) and washed with water (3×10 mL), 5% sodium bicarbonate (2×10 mL) and dried over anhydrous sodium sulfate. Evaporation of the solvent yielded a crude product (0.56 g) which was purified by flash chromatography using silica gel and a hexane/methylene chloride gradient. The product K-1a (0.15 g; 25% yield) was screened against human leukocyte cathepsin G using the progress curve method (kinact/Ki>10,000 M^−1 s^−1). [drawing 45] [drawing 46] [drawing 47] [drawing 48] [drawing 49]

In assay [3] the target is T3, Human Leukocyte Proteinase 3 (PR 3) (Homo sapiens, UniProt P24158).
T3 sequence (P24158 28-248): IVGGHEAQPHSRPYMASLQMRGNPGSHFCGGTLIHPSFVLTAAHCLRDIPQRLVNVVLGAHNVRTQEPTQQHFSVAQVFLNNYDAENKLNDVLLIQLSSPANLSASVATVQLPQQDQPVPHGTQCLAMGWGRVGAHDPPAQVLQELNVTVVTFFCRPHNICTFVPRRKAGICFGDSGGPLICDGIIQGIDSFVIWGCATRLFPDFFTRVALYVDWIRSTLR
Description: Inactivation of proteinase 3, progress curve method. The procedure: as §1, §2

Setting [4] is: Table 5, sulfonamides 31-49, apparent second-order rate constant.
[5] abbreviates: Table 6, heterocyclic sulfides 53-69.

For `CC(C)COC(=O)N(CN1C(=O)C(CC(C)C)N(C)S1(=O)=O)S(C)(=O)=O` (centres unmarked) [Compound 31], in assay [1] (setting [4]), the kinact/KI came out at 11900 M⁻¹ s⁻¹.
With `CCCCOC(=O)N(CN1C(=O)C(CC(C)C)N(C)S1(=O)=O)S(C)(=O)=O` (centres unmarked) [Compound 32], the kinact/KI in assay [1] (setting [4]) was determined as 40500 M⁻¹ s⁻¹.
The same measure, in the same setting: the value for `CC(C)CC1C(=O)N(CN(C(=O)OCc2ccccc2)S(C)(=O)=O)S(=O)(=O)N1C` (centres unmarked) [Compound 33] was 22000 M⁻¹ s⁻¹.
As to `CCCCOC(=O)N(CN1C(=O)C(Cc2ccccc2)N(Cc2ccccc2)S1(=O)=O)S(C)(=O)=O` (centres unmarked) [Compound 38], the kinact/KI amounted to 1970 M⁻¹ s⁻¹ in assay [1] (setting [4]) and 5380 M⁻¹ s⁻¹ in assay [2] (Table 5, sulfonamides 31-49).
As for `CC(C)CC1C(=O)N(CN(C(=O)c2ccccc2)S(C)(=O)=O)S(=O)(=O)N1C` (centres unmarked) [Compound 39], the kinact/KI in assay [1] (setting [4]) is 71000 M⁻¹ s⁻¹.
`CC(C)CC1C(=O)N(CN(C(=O)Cc2ccccc2)S(C)(=O)=O)S(=O)(=O)N1C` (centres unmarked) [Compound 40]: the kinact/KI in assay [1] (setting [4]) stood at 28300 M⁻¹ s⁻¹; in assay [2] (Table 5, sulfonamides 31-49) it was 220 M⁻¹ s⁻¹; in assay [3] (Table 5, sulfonamides 31-49) it was 10100 M⁻¹ s⁻¹.
For the molecule `CC(C)CC1C(=O)N(CN(C(=O)CNC(=O)OC(C)(C)C)S(C)(=O)=O)S(=O)(=O)N1C` (centres unmarked) [Compound 42], the kinact/KI worked out at 140000 M⁻¹ s⁻¹ in assay [1] (setting [4]) and 27400 M⁻¹ s⁻¹ in assay [3] (Table 5, sulfonamides 31-49).
As for `CC(C)CC1C(=O)N(CN(C(=O)CNC(=O)OCc2ccccc2)S(C)(=O)=O)S(=O)(=O)N1C` (centres unmarked) [Compound 43], the kinact/KI in assay [1] (setting [4]) was 229000 M⁻¹ s⁻¹; in assay [2] (Table 5, sulfonamides 31-49), 60 M⁻¹ s⁻¹; in assay [3] (Table 5, sulfonamides 31-49), 27400 M⁻¹ s⁻¹.
On to `CC(C)CC1C(=O)N(CN(C(=O)CNC(=O)OC(C)(C)C)S(C)(=O)=O)S(=O)(=O)N1Cc1ccccc1` (centres unmarked) [Compound 44], for which the kinact/KI in assay [1] (setting [4]) stood at 149000 M⁻¹ s⁻¹.
Turning to `CC(C)CC1C(=O)N(CN(C(=O)CNC(=O)OCc2ccccc2)S(C)(=O)=O)S(=O)(=O)N1Cc1ccccc1` (centres unmarked) [Compound 45], the kinact/KI was 134000 M⁻¹ s⁻¹ in assay [1] (setting [4]); 70 M⁻¹ s⁻¹ in assay [2] (Table 5, sulfonamides 31-49); 30100 M⁻¹ s⁻¹ in assay [3] (Table 5, sulfonamides 31-49).
As to `CCOC(=O)CNC(=O)N(CN1C(=O)C(CC(C)C)N(Cc2ccccc2)S1(=O)=O)S(C)(=O)=O` (centres unmarked) [Compound 48], the kinact/KI turned out to be 14100 M⁻¹ s⁻¹ in assay [1] (setting [4]); 70 M⁻¹ s⁻¹ in assay [2] (Table 5, sulfonamides 31-49); 5190 M⁻¹ s⁻¹ in assay [3] (Table 5, sulfonamides 31-49).
Turning to `CC(C)CC1C(=O)N(CN2C(=O)C(CC(C)C)N(Cc3ccccc3)S2(=O)=O)S(=O)(=O)N1Cc1ccccc1` (centres unmarked) [Compound 49], the kinact/KI in assay [1] (setting [4]) is 850 M⁻¹ s⁻¹.
On to `CC(C)CC1C(=O)N(CSc2nc(-c3ccccc3)no2)S(=O)(=O)N1C` (centres unmarked) [Compound 53], for which the kinact/KI in assay [1] (setting [5]) worked out at 153000 M⁻¹ s⁻¹.
Turning to `CC(C)CC1C(=O)N(CSc2nc3ccccc3s2)S(=O)(=O)N1C` (centres unmarked) [Compound 54], in assay [1] (setting [5]), the kinact/KI stood at 67300 M⁻¹ s⁻¹.
In the case of `CC(C)CC1C(=O)N(CSc2nc3ccccc3o2)S(=O)(=O)N1Cc1ccccc1` (centres unmarked) [Compound 55], the figures for the kinact/KI in assay [1] (setting [5]), in assay [2] (setting [5]) and in assay [3] (setting [5]) were 174000 M⁻¹ s⁻¹, 60 M⁻¹ s⁻¹ and 9130 M⁻¹ s⁻¹, respectively.
Take `CC(C)CC1C(=O)N(CSc2nc(-c3ccccc3)c(-c3ccccc3)o2)S(=O)(=O)N1Cc1ccccc1` (centres unmarked) [Compound 56]: the kinact/KI in assay [1] (setting [5]) came out at 560 M⁻¹ s⁻¹.
Turning to `CC(C)CC1C(=O)N(CSc2nc3ccccc3o2)S(=O)(=O)N1C` (centres unmarked) [Compound 57], the results for the second-order inactivation constant (kinact/KI) in assay [1] (setting [5]), in assay [2] (setting [5]) and in assay [3] (setting [5]) were 80600 M⁻¹ s⁻¹, 30 M⁻¹ s⁻¹ and 10400 M⁻¹ s⁻¹, respectively.
For `CC(C)CC1C(=O)N(CSc2nnc(-c3ccccc3)o2)S(=O)(=O)N1Cc1ccccc1` (centres unmarked) [Compound 58], the kinact/KI in assay [1] (setting [5]) worked out at 168000 M⁻¹ s⁻¹.
In the case of `CC(C)CC1C(=O)N(CSc2nc3ccccc3s2)S(=O)(=O)N1Cc1ccccc1` (centres unmarked) [Compound 59], in assay [1] (setting [5]), the kinact/KI is 22400 M⁻¹ s⁻¹.
On to `CC(C)CC1C(=O)N(CSc2nc(-c3ccccc3)c(-c3ccccc3)o2)S(=O)(=O)N1C` (centres unmarked) [Compound 60], for which the kinact/KI in assay [1] (setting [5]) stood at 1540 M⁻¹ s⁻¹.
As to `CC(C)CC1C(=O)N(CSc2nnc(-c3ccccc3)o2)S(=O)(=O)N1C` (centres unmarked) [Compound 61], in assay [1] (setting [5]), the kinact/KI stood at 25300 M⁻¹ s⁻¹.
For the molecule `CC(C)CC1C(=O)N(CSc2nc(-c3ccccc3)no2)S(=O)(=O)N1Cc1ccccc1` (centres unmarked) [Compound 62], the kinact/KI in assay [1] (setting [5]) was 67800 M⁻¹ s⁻¹.
Consider `CC(C)CC1C(=O)N(CSc2nc3cc(-c4ccccc4)ccc3o2)S(=O)(=O)N1C` (centres unmarked) [Compound 63], for which the second-order inactivation constant (kinact/KI) in assay [1] (setting [5]) came to 22600 M⁻¹ s⁻¹.
On to `CC(C)CC1C(=O)N(CSc2nc3cc(-c4ccccc4)ccc3o2)S(=O)(=O)N1Cc1ccccc1` (centres unmarked) [Compound 64], for which the “kinact/KI HLE” value in assay [1] (setting [5]) is “inactive”. Further, the inactivation efficiency (kinact/KI) in assay [2] (setting [5]) was found to be 50 M⁻¹ s⁻¹; in assay [3] (setting [5]), 1090 M⁻¹ s⁻¹.
With `CN1C(Cc2ccccc2)C(=O)N(CSc2nnc(-c3ccccc3)o2)S1(=O)=O` (centres unmarked) [Compound 65], the “kinact/KI HLE” value in assay [1] (setting [5]) is “inactive”. The kinact/KI in assay [2] (setting [5]) amounted to 490 M⁻¹ s⁻¹.
For `CN1C(Cc2ccccc2)C(=O)N(CSc2nc3ccccc3o2)S1(=O)=O` (centres unmarked) [Compound 66], in assay [2] (setting [5]), the kinact/KI is 430 M⁻¹ s⁻¹.
For the molecule `O=C1C(Cc2ccccc2)N(Cc2ccccc2)S(=O)(=O)N1CSc1nc2ccccc2o1` (centres unmarked) [Compound 67], in assay [2] (setting [5]), the kinact/KI is 17100 M⁻¹ s⁻¹.
`O=C1C(Cc2ccccc2)N(Cc2ccccc2)S(=O)(=O)N1CSc1nnc(-c2ccccc2)o1` (centres unmarked) [Compound 68]: the kinact/KI in assay [2] (setting [5]) turned out to be 17500 M⁻¹ s⁻¹.
Take `Nc1ccc2nc(SCN3C(=O)C(Cc4ccccc4)N(Cc4ccccc4)S3(=O)=O)oc2c1` (centres unmarked) [Compound 69]: the kinact/KI in assay [2] (setting [5]) amounted to 15700 M⁻¹ s⁻¹.
As for `CCOC(=O)C(F)N1C(=O)C(Cc2ccccc2)N(Cc2ccccc2)S1(=O)=O` (centres unmarked) [Compound K-1a], in assay [2] (human leukocyte cathepsin G, progress curve method), the kinact/Ki is > 10,000 M^−1 s^−1.
